Test results taken from patent US9181273B2, “Morpholine-spirocyclic piperidine amides as modulators of ion channels” (Vertex Pharmaceuticals Incorporated, priority 2011, dated 2015).

Molecular target: human NaV subtype, like NaV 1.7 (Homo sapiens, UniProt Q15858)
Assay: E-VIPR optical membrane potential assay with electrical stimulation
Format: cell-based
Details: active against one or more sodium channels; assay and NaV subtype not specified for Table 3; read-out: IC50 Binned Activity Data
From the text: Sodium channels are voltage-dependent proteins that can be activated by inducing membrane voltage changes by applying electric fields. […] The instrument comprises a microtiter plate handler, an optical system for exciting the coumarin dye while simultaneously recording the coumarin and oxonol emissions, a waveform generator, a current- or voltage-controlled amplifier, and a device for inserting electrodes in well. Under integrated computer control, this instrument passes user-programmed electrical stimulus protocols to cells within the wells of the microtiter plate.
24 hours before the assay on E-VIPR, HEK cells expressing human NaV subtype, like NaV 1.7, are seeded in 384-well poly-lysine coated plates at 15,000-20,000 cells per well. Other subtypes are performed in an analogous mode in a cell line expressing the NaV of interest. […] Cells are grown in vented cap flasks, in 90% humidity and 10% CO2, to 100% confluence. They are usually split by trypsinization 1:10 or 1:20, depending on scheduling needs, and grown for 2-3 days before the next split.
To make the solution Add volume of 10% Pluronic F127 stock equal to volumes of CC2-DMPE+DiSBAC6(3). The order of preparation is first mix Pluronic and CC2-DMPE, then add DiSBAC6(3) while vortexing, then add Bath1+β-Cyclodextrin.
1) Pre-spot compounds (in neat DMSO) into compound plates. […] Final compound plate volume will be 80 μL (80-fold intermediate dilution from 1 μL DMSO spot; 160-fold final dilution after transfer to cell plate).
2) Prepare Hexyl Dye Solution.
3) Prepare cell plates. On the day of the assay, medium is aspirated and cells are washed three times with 100 μL of Bath1 Solution, maintaining 25 μL residual volume in each well.
4) Dispense 25 μL per well of Hexyl Dye Solution into cell plates. Incubate for 20-35 minutes at room temp or ambient conditions.
5) Dispense 80 μL per well of Bath1 into compound plates. Acid Yellow-17 (1 mM) is added and Potassium Chloride can be altered from 4.5 to 20 mM depending on the NaV subtype and assay sensitivity.
6) Wash cell plates three times with 100 μL per well of Bath1, leaving 25 μL of residual volume. Then transfer 25 uL per well from Compound Plates to Cell Plates. Incubate for 20-35 minutes at room temp/ambient condition
7) Read Plate on E-VIPR. Use the current-controlled amplifier to deliver stimulation wave pulses for typically 9 seconds and a scan rate of 400 Hz. A pre-stimulus recording is performed for 0.5 seconds to obtain the un-stimulated intensities baseline. The stimulatory waveform is applied for 9 seconds followed by 0.5 seconds of post-stimulation recording to examine the relaxation to the resting state. The stimulatory waveform of the electrical stimulation is specific for each cell type and can vary the magnitude, duration and frequency of the applied current to provide an optimal assay signal.
Data are analyzed and reported as normalized ratios of background-subtracted emission intensities measured in the 460 nm and 580 nm channels. Background intensities are then subtracted from each assay channel. Background intensities are obtained by measuring the emission intensities during the same time periods from identically treated assay wells in which there are no cells. The response as a function of time is then reported as the ratios obtained using the following formula: […]
The data is further reduced by calculating the initial (Ri) and final (Rf) ratios. These are the average ratio values during part or all of the pre-stimulation period, and during sample points during the stimulation period. The response to the stimulus R=Rf/Ri is then calculated and reported as a function of time.
Control responses are obtained by performing assays in the presence of a compound with the desired properties (positive control), such as tetracaine, and in the absence of pharmacological agents (negative control). Responses to the negative (N) and positive (P) controls are calculated as above. The compound antagonist activity A is defined as: […]

human NaV subtype, like NaV 1.7, sequence (Q15858 whole entry): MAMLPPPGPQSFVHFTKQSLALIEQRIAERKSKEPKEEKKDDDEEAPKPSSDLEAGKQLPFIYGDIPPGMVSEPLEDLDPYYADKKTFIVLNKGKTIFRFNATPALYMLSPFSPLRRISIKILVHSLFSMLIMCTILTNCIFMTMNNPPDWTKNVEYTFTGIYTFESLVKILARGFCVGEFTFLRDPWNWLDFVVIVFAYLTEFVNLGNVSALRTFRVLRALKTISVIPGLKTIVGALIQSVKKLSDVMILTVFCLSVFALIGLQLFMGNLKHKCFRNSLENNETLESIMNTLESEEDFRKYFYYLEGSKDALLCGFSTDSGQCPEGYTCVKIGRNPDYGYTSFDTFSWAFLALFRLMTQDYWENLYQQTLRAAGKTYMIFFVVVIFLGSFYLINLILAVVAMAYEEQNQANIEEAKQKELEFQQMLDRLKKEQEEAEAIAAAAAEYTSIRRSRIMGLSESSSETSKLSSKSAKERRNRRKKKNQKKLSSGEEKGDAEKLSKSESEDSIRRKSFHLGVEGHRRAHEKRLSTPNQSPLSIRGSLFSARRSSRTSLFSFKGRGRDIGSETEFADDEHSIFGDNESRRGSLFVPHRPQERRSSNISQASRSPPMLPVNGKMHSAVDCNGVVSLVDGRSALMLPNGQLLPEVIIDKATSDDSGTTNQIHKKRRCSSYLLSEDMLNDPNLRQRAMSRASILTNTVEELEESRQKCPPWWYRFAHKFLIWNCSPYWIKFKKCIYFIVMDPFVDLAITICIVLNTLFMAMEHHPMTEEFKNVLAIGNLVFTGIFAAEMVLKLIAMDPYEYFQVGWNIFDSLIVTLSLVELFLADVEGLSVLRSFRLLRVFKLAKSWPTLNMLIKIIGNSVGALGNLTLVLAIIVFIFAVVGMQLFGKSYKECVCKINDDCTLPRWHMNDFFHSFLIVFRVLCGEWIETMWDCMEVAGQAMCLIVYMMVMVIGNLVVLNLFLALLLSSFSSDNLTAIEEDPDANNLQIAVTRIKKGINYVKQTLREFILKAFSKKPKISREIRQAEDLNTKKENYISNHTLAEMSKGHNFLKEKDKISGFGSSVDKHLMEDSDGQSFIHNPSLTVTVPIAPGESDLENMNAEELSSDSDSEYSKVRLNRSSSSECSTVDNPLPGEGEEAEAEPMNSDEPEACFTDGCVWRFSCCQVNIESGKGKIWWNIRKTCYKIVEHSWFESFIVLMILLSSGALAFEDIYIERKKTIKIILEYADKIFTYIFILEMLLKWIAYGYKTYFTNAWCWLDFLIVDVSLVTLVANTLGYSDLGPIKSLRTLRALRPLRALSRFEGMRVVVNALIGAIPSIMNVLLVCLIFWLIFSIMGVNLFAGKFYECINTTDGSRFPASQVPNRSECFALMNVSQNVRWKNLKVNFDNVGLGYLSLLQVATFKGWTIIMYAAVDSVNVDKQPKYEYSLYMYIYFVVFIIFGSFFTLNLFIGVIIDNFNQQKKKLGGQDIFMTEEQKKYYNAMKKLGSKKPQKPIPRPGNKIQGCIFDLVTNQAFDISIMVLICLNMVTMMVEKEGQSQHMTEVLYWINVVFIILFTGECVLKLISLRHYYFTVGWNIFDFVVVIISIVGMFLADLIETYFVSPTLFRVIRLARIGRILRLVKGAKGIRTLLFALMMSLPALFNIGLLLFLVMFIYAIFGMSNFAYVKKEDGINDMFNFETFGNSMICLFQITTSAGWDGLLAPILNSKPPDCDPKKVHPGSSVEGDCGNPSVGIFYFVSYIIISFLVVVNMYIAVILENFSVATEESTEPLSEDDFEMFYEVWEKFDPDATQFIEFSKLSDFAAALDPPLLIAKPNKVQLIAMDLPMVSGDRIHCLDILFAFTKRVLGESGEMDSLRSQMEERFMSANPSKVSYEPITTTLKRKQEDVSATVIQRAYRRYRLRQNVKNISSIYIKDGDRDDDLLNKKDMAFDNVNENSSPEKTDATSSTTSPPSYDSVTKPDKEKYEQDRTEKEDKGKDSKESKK

Row | Compound | IC50 [µM]
1 | CC(C)Oc1ccc(C(=O)N2CCC3(CC2)CN(CC(F)(F)F)CC(c2ccccc2)O3)cc1 (stereo not drawn) [Compound 119] | < 2
2 | COCC1CN(c2ncccn2)CC2(CCN(C(=O)c3ccc(OC(C)C)c(C)c3)CC2)O1 (stereo not drawn) [Compound 120] | < 2
3 | COCC1CN(C2CCN(C(C)=O)CC2)CC2(CCN(C(=O)c3ccc(OC(C)C)c(C)c3)CC2)O1 (stereo not drawn) [Compound 121] | > 5
4 | Cc1cc(C(=O)N2CCC3(CC2)CN(CC(F)F)CC(c2ccc(Cl)cc2)O3)ccc1OC(C)C (stereo not drawn) [Compound 122] | > 5
5 | Cc1cc(C(=O)N2CCC3(CC2)CN(CC(F)(F)F)[C@H](C)[C@@H](c2ccccc2)O3)ccc1OC(C)C [Compound 123] | 2 to 5
6 | COCC1CN(c2ccc(C(F)(F)F)cc2)CC2(CCN(C(=O)c3ccc(OC(C)C)c(C)c3)CC2)O1 (stereo not drawn) [Compound 124] | < 2
7 | COCCOc1ccc(C(=O)N2CCC3(CC2)CN(c2ncccn2)CC(COC)O3)cc1OC (stereo not drawn) [Compound 125] | > 5
8 | COCC1CN(c2cc(OC)ccn2)CC2(CCN(C(=O)c3ccc(OC(C)C)c(C)c3)CC2)O1 (stereo not drawn) [Compound 126] | < 2
9 | Cc1cc(C(=O)N2CCC3(CC2)CN(CC(F)(F)F)CC(C(C)(C)O)O3)ccc1OC(C)C (stereo not drawn) [Compound 127] | 2 to 5
10 | COc1cc(C(=O)N2CCC3(CC2)CN(CC(F)(F)F)CC(c2ccccc2)O3)ccc1OC(C)(C)C (stereo not drawn) [Compound 128] | < 2
11 | CC#CCN1CC(CC)OC2(CCN(C(=O)c3ccc(C(C)(C)C)c(OC)c3)CC2)C1 (stereo not drawn) [Compound 129] | < 2
12 | CCC1CN(c2ncccn2)CC2(CCN(C(=O)c3ccc(C4=CCCC4)c(F)c3)CC2)O1 (stereo not drawn) [Compound 130] | > 5
13 | COCC1CN(C2CCSCC2)CC2(CCN(C(=O)c3ccc(OC(C)C)c(C)c3)CC2)O1 (stereo not drawn) [Compound 131] | < 2
14 | COCC1CN(Cc2cc(C)on2)CC2(CCN(C(=O)c3ccc(OC(C)C)c(C)c3)CC2)O1 (stereo not drawn) [Compound 132] | 2 to 5
15 | CC(C)(O)Cc1ccc(C(=O)N2CCC3(CC2)CN(CC(F)(F)F)CC(c2ccccc2)O3)cc1 (stereo not drawn) [Compound 133] | < 2
16 | COCC1CN(CC2CCOCC2)CC2(CCN(C(=O)c3ccc(OC(C)C)c(C)c3)CC2)O1 (stereo not drawn) [Compound 134] | > 5
17 | CC(C)Oc1ccc(C(=O)N2CCC3(CC2)CN(CC(F)(F)F)CC(c2ccccc2)O3)c(F)c1 (stereo not drawn) [Compound 135] | < 2
18 | COCC1CN(c2ncccn2)CC2(CCN(C(=O)c3ccc(OC(C)C)cc3)CC2)O1 (stereo not drawn) [Compound 136] | 2 to 5
19 | CC(C)Oc1ccc(C(=O)N2CCC3(CC2)CN(CC(F)F)CC(c2ncc(C(C)(C)C)o2)O3)cc1F (stereo not drawn) [Compound 137] | < 2
20 | Cc1cc(C(=O)N2CCC3(CC2)CN(CC(F)(F)F)CC(c2ccccc2)O3)ccc1OCC(C)(C)O (stereo not drawn) [Compound 138] | < 2
21 | CC#CCN1CC(CF)OC2(CCN(C(=O)c3ccc(OC(C)C)c(C)c3)CC2)C1 (stereo not drawn) [Compound 139] | > 5
22 | COCC1CN(c2ccccn2)CC2(CCN(C(=O)c3ccc(OC(C)C)c(C)c3)CC2)O1 (stereo not drawn) [Compound 140] | < 2
23 | CC#CCN1CC(CC)OC2(CCN(C(=O)c3ccc(OC)c(C)c3)CC2)C1 (stereo not drawn) [Compound 141] | > 5
24 | CCC1CN(Cc2ccccc2)CC2(CCN(C(=O)c3ccc(OC(C)C)c(C)c3)CC2)O1 (stereo not drawn) [Compound 142] | > 5
25 | COCCOc1ccc(C(=O)N2CCC3(CC2)CN(CC(F)(F)F)CC(c2ccccc2)O3)cc1OC (stereo not drawn) [Compound 143] | < 2
26 | COc1cccc(C(=O)N2CCC3(CC2)CN(CC(F)F)CC(c2ccccc2)O3)n1 (stereo not drawn) [Compound 144] | 2 to 5
27 | CCOc1ccc(C(=O)N2CCC3(CC2)CN(CC)CC(c2ccccc2)O3)cc1CO (stereo not drawn) [Compound 145] | > 5

Row | Compound | IC50 [µM]
28 | Cc1cc(C(=O)N2CCC3(CC2)CN(CC(F)(F)F)CC(CCO)O3)ccc1OC(C)C (stereo not drawn) [Compound 146] | 2 to 5
29 | COCC1CN(CCC(C)C)CC2(CCN(C(=O)c3ccc(OC(C)C)c(C)c3)CC2)O1 (stereo not drawn) [Compound 147] | < 2
30 | Cc1noc(C2CN(Cc3ccccc3)CC3(CCN(C(=O)c4ccc(OC(C)C)c(C)c4)CC3)O2)n1 (stereo not drawn) [Compound 148] | 2 to 5
31 | Cc1noc(C2CN(CC(F)(F)F)CC3(CCN(C(=O)c4ccc(OC(C)C)c(C)c4)CC3)O2)n1 (stereo not drawn) [Compound 149] | 2 to 5
32 | Cc1cc(C(=O)N2CCC3(CC2)CN(CC(F)F)CC(c2[nH]ncc2C)O3)ccc1OC(C)C (stereo not drawn) [Compound 150] | < 2
33 | O=C(c1ccc(C2(O)COC2)cc1)N1CCC2(CC1)CN(CC(F)(F)F)CC(c1ccccc1)O2 (stereo not drawn) [Compound 151] | > 5
34 | COc1cc(C(=O)N2CCC3(CC2)CN(CC(F)(F)F)CC(c2ncc(C)s2)O3)ccc1OC(C)C (stereo not drawn) [Compound 152] | < 2
35 | Cc1cc(C(=O)N2CCC3(CC2)CN(CC(F)F)CC(c2ccccc2)O3)ccc1OC(C)C (stereo not drawn) [Compound 153] | < 2
36 | CC#CCN1CC(F)(F)OC2(CCN(C(=O)c3ccc(OC(C)C)c(C)c3)CC2)C1 [Compound 154] | > 5
37 | O=C(c1cccc(Cl)c1)N1CCC2(CC1)CN(CC(F)(F)F)CC(c1ccccc1)O2 (stereo not drawn) [Compound 155] | > 5
38 | CC(C)Oc1ccc(C(=O)N2CCC3(CC2)CN(CC(F)F)CC(c2ccc(F)cc2)O3)cc1Cl (stereo not drawn) [Compound 156] | < 2
39 | Cc1nc(C(=O)N2CCC3(CC2)CN(CC(F)F)CC(c2ccccc2)O3)ccc1C#N (stereo not drawn) [Compound 157] | > 5
40 | CCN1CC(c2ccccc2)OC2(CCN(C(=O)c3ccc(C(C)(C)O)cc3)CC2)C1 (stereo not drawn) [Compound 158] | > 5
41 | CC(C)Oc1ccc(C(=O)N2CCC3(CC2)CN(CC(F)F)CC(c2ncc(C(C)C)o2)O3)cc1F (stereo not drawn) [Compound 159] | > 5
42 | COCC1CN(C(C)(C)C)CC2(CCN(C(=O)c3ccc(OC(C)C)c(C)c3)CC2)O1 (stereo not drawn) [Compound 160] | 2 to 5
43 | COCC1CN(c2ncccn2)CC2(CCN(C(=O)c3ccc(C(C)(C)O)cc3)CC2)O1 (stereo not drawn) [Compound 161] | > 5
44 | COc1cc(C(=O)N2CCC3(CC2)CN(CC(F)F)CC(c2cccc(C)n2)O3)cc(F)c1OC(C)C (stereo not drawn) [Compound 162] | > 5
45 | Cc1cc(C(=O)N2CCC3(CC2)CNCC(c2ccccc2)O3)ccc1OC(C)C (stereo not drawn) [Compound 163] | > 5
46 | COCC1CN(c2ncccn2)CC2(CCN(C(=O)c3ccccc3OC(F)F)CC2)O1 (stereo not drawn) [Compound 164] | > 5
47 | CC(C)CS(=O)(=O)c1ccc(C(=O)N2CCC3(CC2)CN(CC(F)(F)F)CC(c2ccccc2)O3)cc1 (stereo not drawn) [Compound 165] | < 2
48 | CCN1CC(c2ccccc2)OC2(CCN(C(=O)c3ccc(OC(C)C)c(CO)c3)CC2)C1 (stereo not drawn) [Compound 166] | 2 to 5
49 | CCN1CC(c2ccccc2)OC2(CCN(C(=O)c3ccc(S(=O)(=O)NC4CC4)cc3)CC2)C1 (stereo not drawn) [Compound 167] | > 5
50 | Cc1cc(C(=O)N2CCC3(CC2)CN(CC(F)F)CC(c2ccccc2)O3)ccc1C(C)(C)O (stereo not drawn) [Compound 168] | < 2
51 | COCC1CN(Cc2ccccc2)CC2(CCN(C(=O)c3ccc(OC(C)C)c(C)c3)CC2)O1 (stereo not drawn) [Compound 169] | < 2
52 | Cc1cc(C(=O)N2CCC3(CC2)CN(CC(F)F)CC(c2ccc(F)cc2)O3)ccc1OCC(C)(C)O (stereo not drawn) [Compound 170] | < 2
53 | Cc1cc(C(=O)N2CCC3(CC2)CN(c2ncccn2)CC(COC(F)F)O3)ccc1OC(C)C (stereo not drawn) [Compound 171] | < 2
54 | COc1cc(C(=O)N2CCC3(CC2)CN(CC(F)(F)F)CC(c2ccccc2)O3)ccc1S(C)(=O)=O (stereo not drawn) [Compound 172] | > 5
